The METLIN SMRT retention time set (Domingo-Almenara et al. 2019)

Experiment: gradient 5% acetonitrile 3 min, to 50% in 2 min, to 85% in 15 min, held 3 min, 100 µL/min
Details: column: Zorbax Extend-C18 2.1 x 50 mm; eluents: water / acetonitrile, 0.1% formic acid
Procedure, shortened: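 Retention times come from adduct peaks that were picked computationally and then checked by hand. The standards, pure and pooled in mixtures of ~100 molecules, were run on a Zorbax Extend-C18 column (2.1 × 50 mm, 1.8 μm) at 100 μL/min with water and acetonitrile, each with 0.1% formic acid. Detection was by quadrupole time-of-flight mass spectrometry in positive and negative ionization mode, with a dead volume of 40 μL and a dwell volume of 900 μL.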

Row | RP-LC retention time [s] | Compound
1 | 723 | Cc1ccc(CNC(=O)C2CCc3nc(N4CCOCC4)ncc3C2)cc1 (stereo not given)
2 | 1120 | Cc1ccc(-c2nnc(Cc3nc(-c4ccc(F)cc4)no3)o2)cc1C
3 | 886 | Cc1[nH]nc(-c2cc(S(=O)(=O)NCCc3ccccc3)c(C)s2)c1C
4 | 858 | CCCCNC(=O)c1nc(Nc2cccc(C)c2)c2ccccc2n1
5 | 913 | CCOC(=O)c1nc(Nc2ccccc2Cl)c2ccccc2n1
6 | 1160 | Cc1ccc(N2CC(c3nc(-c4ccc(N(C)C)cc4)no3)CC2=O)cc1Cl (stereo not given)
7 | 746 | Cc1cc(C)c2c(N3CCSCC3)nc(C(=O)NCc3cccs3)nc2n1
8 | 699 | Cc1cc(NS(=O)(=O)c2cc(-c3[nH]ncc3C(=O)N(C)C)oc2C)ccc1F
9 | 720 | COc1cc(C(C)=O)ccc1OCCCN1CCC(c2noc3cc(F)ccc23)CC1
10 | 680 | Cc1cccc(NC(=O)N2CCN(c3cc(C)nc(N4CCCC4)n3)CC2)c1
11 | 1250 | O=C(Nc1cccc(F)c1)c1c(O)c2cccnc2n(-c2ccc(F)cc2)c1=O
12 | 622 | CCN1CN=C(Nc2nc(C)c3cc(OC)ccc3n2)NC1
13 | 590 | Cc1cc(=O)n(CC(=O)Nc2ccccc2C)c(N)n1
14 | 723 | COc1ccc(C(=O)N2C[C@@H]3C[C@H]2C[C@@H]3NS(=O)(=O)c2ccccc2)cc1OC
15 | 898 | CCc1nc(-c2c(C)cc(C)nc2NC(=O)c2cccc(Br)c2)no1
16 | 572 | O=C(NCCN1CCN(C(=O)Cn2ccc3ccccc32)CC1)c1cccs1
17 | 745 | CCCNC(=O)N1CC(Oc2ccc(-c3nc(C)no3)cc2)C1
18 | 810 | CCN(CC)CCOCCOC(=O)C1(c2ccccc2)CCCC1
19 | 1120 | COc1ccc(CNC(=O)c2cc3c(-c4cccs4)nn(-c4ccccc4)c3n2C)cc1
20 | 662 | Cc1nn(C)c(C)c1S(=O)(=O)N1CCC(c2noc(-c3cccnc3)n2)C1 (stereo not given)
21 | 622 | COCc1cc(=O)n(CC(=O)Nc2cccc(C)c2)c(N)n1
22 | 1290 | Cc1nc(N2CCN(c3ncccn3)CC2)nc2c1C(=O)CC(/C=C/c1ccccc1)C2 (stereo not given)
23 | 867 | O=C(Cn1c(C(F)(F)F)nc2cc3c(cc21)OCCO3)Nc1ccccc1

Row | RP-LC retention time [s] | Compound
24 | 899 | Cc1c(S(=O)(=O)NCC2CC2)c(C)n(C)c1-c1nnc(C2CCC2)o1
25 | 1030 | Brc1ccc(-c2noc(CSc3nccn3-c3ccccc3)n2)cc1
26 | 869 | CCn1cc(S(=O)(=O)Nc2cc(F)ccc2C)c2cccnc21
27 | 802 | CCc1ccc(CNC(=O)C2CCc3nc(N4CCOCC4)ncc3C2)cc1 (stereo not given)
28 | 1080 | CCOC(=O)c1c(C)oc2nc(C)nc(NCc3cccc(OC)c3)c12
29 | 679 | CCN(CC)S(=O)(=O)c1ccc2c(c1)cc(C(=O)NCCCN1CCCCC1C)n2C (stereo not given)
30 | 1040 | Cc1cccc(N2C(=O)C(O)=C(C(=O)c3cccs3)C2c2ccc(Cl)cc2)n1 (stereo not given)
31 | 635 | CC1CCCN(c2ccc(-c3noc(CN4CCN(CC(=O)NC(C)C)CC4)n3)cn2)C1 (stereo not given)
32 | 816 | CCOc1ccc(NC(=O)C2CCCN(c3ncnc4c3oc3ccccc34)C2)cc1 (stereo not given)
33 | 676 | CC(=O)c1cccc(NC(=O)CC2COc3ccccc3NC2=O)c1 (stereo not given)
34 | 710 | O=C(Nc1ccc(F)c(Cl)c1)N1CCC(OC2CCN(Cc3ccccc3)CC2)CC1
35 | 577 | O=C(NC1CC1)C1CCCN(C(=O)c2cc(-c3ccccn3)n[nH]2)C1 (stereo not given)
36 | 836 | CCc1noc(NC(C)=O)c1-c1ccc(C)c(S(=O)(=O)N(CC)CC)c1
37 | 631 | CCc1cc(=O)n(CC(=O)Nc2ccc(C)cc2C)c(N)n1
38 | 829 | COc1ccc(Cl)cc1S(=O)(=O)N(C)CC1(C)CCOCC1
39 | 824 | Cc1ccccc1CN1C[C@@H]2C(=O)N(Cc3ccc4c(c3)OCO4)C(=O)[C@@H]2C1
40 | 718 | CCOC(=O)C1=C(C)NC2=C(C(=O)c3ccccc32)C1c1ccc(OCC)cc1 (stereo not given)
41 | 906 | Cc1cc(C)n2nc(-c3ccccc3)c(C)c2n1
42 | 810 | COc1cccc(C(=O)NCCCS(=O)(=O)N2CCN(c3ccccc3)CC2)c1OC
43 | 672 | Cc1noc([C@@H]2CN(C(=O)CC3CCCC3)C[C@H]2CO)n1
44 | 564 | Cc1cc(N2CCN(C)CC2)nc2ccc(NC(=O)Nc3ccccc3)cc12
45 | 708 | COc1ccc(NC(=O)NCCCn2c(C(F)(F)F)nc3cccnc32)c(OC)c1
46 | 774 | O=C(Cn1cc(S(=O)(=O)Cc2cccc(Cl)c2)c2ccccc21)N1CCOCC1

Row | RP-LC retention time [s] | Compound
47 | 994 | Cc1ccc(-c2csc(-c3cc4c([nH]c3=O)CC(C)(C)CC4=O)n2)cc1
48 | 1100 | Cc1ccc(-c2nc(-c3ccnc(N4CCOCC4)c3)no2)cc1F
49 | 988 | CCS(=O)(=O)c1ccc2c(c1)N(Cc1nc(-c3cccc(Br)c3)no1)C(=O)CO2
50 | 672 | Cc1cc(=O)n(CC(=O)Nc2ccc(Cl)cc2)c(N2CCCC2)n1
51 | 678 | CCc1nnc([C@@H]2CC(F)(F)CN2C(=O)c2coc(C)n2)o1
52 | 597 | O=C1CC(c2nc3ccccc3n2CCN2CCOCC2)CN1Cc1ccccc1 (stereo not given)
53 | 586 | CCN1CCCC1CNC(=O)c1nnc(Cc2cc(OC)c(OC)c(OC)c2)o1 (stereo not given)
54 | 1040 | CCOCCCNC(=O)c1cc2sccc2n1Cc1ccc(Cl)cc1
55 | 1090 | Cc1cccc(Cn2ccc3ccn(CC(=O)N4CCOc5ccc(C)cc54)c(=O)c32)c1
56 | 560 | C/C=C/c1ccc(OCC(O)CN2CCN(C)CC2)c(OC)c1 (stereo not given)
57 | 690 | O=C(Nc1cccn2ncnc12)c1cccs1
58 | 895 | CCCc1nc(-c2c(C)cc(C)nc2NC(=O)c2ccc(F)cc2F)no1
59 | 581 | O=C(c1cc(-c2cccnc2)n[nH]1)N1CCN(C(=O)C2CCC2)CC1
60 | 664 | CCCNc1cc(N2CCC(CCC(=O)N3CCC(C(=O)OCC)CC3)CC2)ncn1
61 | 871 | CCc1nc(CN2C(=O)COc3cc(S(=O)(=O)N4CCN(c5ncccn5)CC4)c(C)cc32)no1
62 | 1180 | CCCn1nnc(NCc2ccc(-c3cc(Cl)ccc3Cl)o2)n1
63 | 872 | Cn1cccc1C(=O)C(=O)Nc1ccc(C#N)cc1
64 | 895 | COc1ccc(C2=Nc3ccccc3N(CC(=O)Nc3ccc4c(c3)OCO4)C(=O)C2)cc1
65 | 1090 | COC(=O)c1cc(C2CC2)nc2c1c(=O)n(Cc1cccc(C)c1)c(=O)n2C
66 | 912 | Cc1nc(-c2ccncc2)nc2c1CCC(=O)N2CCC1=CCCCC1
67 | 1370 | O=C(Nc1cnc(-c2cccc(Cl)c2)nc1)c1nccc2ccccc12
68 | 694 | O=C(CCc1c(-c2ccc(F)cc2)nc2ccccn12)N1CCN(c2ccccc2F)CC1
69 | 614 | CCN(CC)CCNC(=O)CN1C(=O)C2CCCCN2c2ccc(C(=O)N3CCCC3)cc21 (stereo not given)

Row | RP-LC retention time [s] | Compound
70 | 651 | COC(=O)c1cnc(N2CCN(c3cc(Cl)ccc3C)CC2)c2ccccc12
71 | 900 | Cc1ccc(CNC(=O)Cn2c(=O)c(S(=O)(=O)c3ccccc3)cc3ccccc32)cc1
72 | 578 | O=C(CC1CCOC2(CCN(Cc3cccs3)CC2)C1)NC1CC1 (stereo not given)
73 | 604 | Fc1ccc(CN2CCC(N3CC4(CCCCC4)C3c3ccncc3)CC2)cc1F (stereo not given)
74 | 726 | CCOc1nccnc1NC1CCN(C(=O)c2ccc(C)s2)CC1
75 | 897 | O=C(c1cc(Cl)ccc1Cl)N1CCN(c2cc(-c3ccc(F)cc3)[nH]n2)CC1
76 | 889 | CN(C)c1ccc(CNc2ccc(-c3nc(-c4ccc(F)cc4)no3)cn2)cc1
77 | 694 | CC1CN(C(=O)CCC(=O)NC2CCN(Cc3ccccc3)CC2)c2cc(Cl)ccc2O1 (stereo not given)
78 | 751 | CN(C)C(=O)c1cc2c(s1)CCC(C(=O)NC1CCCCCC1)C2 (stereo not given)
79 | 678 | CCCCn1c(CN2CCOCC2)nc2cc(NC(=O)c3cccs3)ccc21
80 | 608 | CCc1cc(=O)n(CC(=O)Nc2cccc(C)c2C)c(N)n1
81 | 596 | CCc1cc(=O)n(CC(=O)Nc2ccc(F)cc2)c(N)n1
82 | 732 | CCc1nnc2cc(N3CCN(S(=O)(=O)c4ccc(C)cc4)CC3)cnn12
83 | 622 | Cc1nc(C2CCOCC2)n(C2CCN(S(=O)(=O)c3cccnc3)C2)n1 (stereo not given)
84 | 1100 | C=CCN(Cc1nc(-c2ccc(C)cc2)no1)C(=O)Nc1ccc(C)cc1
85 | 955 | COC(=O)c1c(NCCN2CCCc3ccccc32)c2cccc(Cl)c2[nH]c1=O
86 | 853 | O=C(Cc1cccs1)N1CCCC1(CO)Cc1ccccc1 (stereo not given)
87 | 911 | CCCc1sc(NCc2cccc(OC)c2O)nc1-c1cc(C)ccc1C
88 | 836 | CCn1nc(C)n2cc(S(=O)(=O)NCc3ccc(F)cc3)cc2c1=O
89 | 868 | Cn1nccc1-c1cccc(-c2noc(CNS(=O)(=O)c3ccc(F)cc3)n2)c1
90 | 736 | CCCN(C)c1nccn2c(=O)n(CC(=O)Nc3ccc(C)cc3Cl)nc12
